Laboratory results taken from PubChem BioAssay (NCI).
Values joined by “and” are separate entries in the source; they are usually repeats but may differ in a detail not shown here. Equal entries are not always repeated.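 Protocol summary: plate cells (96-well), add compound at 5 concentrations, incubate 48 h, interpolate endpoints linearly. Here, GI50 denotes the concentration required for 50% inhibition of growth. The concentration for full growth arrest is given as TGI.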

Test system: MDA-MB-468 breast
Test: NCI-60 cell line screen, 48 h

Row | Compound | GI50 | TGI
1 | CC(=O)/C=C/c1ccc(N(CCO)Cc2ccc(C(C)(C)C)cc2)cc1 | 31.1 µM | 127 µM
2 | CC(C)(C)OC(=O)N1Cc2cc3ccccc3nc2C1CO (configuration not stated) | > 100 µM | > 100 µM
3 | C=C1C(=O)O[C@H]2[C@H]1CC/C(COC(=O)/C=C\C(=O)NCc1ccc(Cn3c(=O)sn(-c4ccc(Cl)cc4)c3=O)cc1)=C\CC[C@@]1(C)O[C@@H]21 | 0.568 µM | 1.37 µM
4 | CCN(CC)CCCNc1cc(OC)c(OC)c2cccnc12 | 3.85 µM | 14.6 µM
5 | O=C(c1ccc(Nc2nccc(NCCCCNc3ccnc4cc(Cl)ccc34)n2)cc1)N1CCCCC1 | 1.47 µM | 3.47 µM
6 | CC[Si](CC)(CC)OC1[C@@H](O[Si](CC)(CC)CC)[C@@H](CNC(=O)NC)O[C@H]1n1cnc2c(NC(=O)Nc3ccccc3)ncnc21 (some centres not stated) | 4.24 µM | 57.4 µM
7 | C=CCN1C(=O)[C@]2(SC1=S)[C@H](c1cccc(Cl)c1)CN(C)[C@]21C(=O)NC2C=CC(Cl)=C[C@H]21 (some centres not stated) | 3.24 µM | 14.3 µM
8 | CCC(=C(c1ccc(OCCN2CCCC2)cc1)c1ccc(OCCN2CCCC2)cc1)c1ccc(Cl)cc1 | 0.533 µM | 1.07 µM
9 | CCOC(=O)c1cc2c(n1Cc1ccccc1OC)-c1oncc1CCC2 | 2.95 µM | > 100 µM
10 | Cc1nn(-c2ccccc2)c2nc(C)n(-c3ccc(Br)cc3)c(=O)c12 | 0.476 µM | 53 µM
11 | CN1CCN(c2ccc(Nc3nc(NCCCNS(=O)(=O)c4ccc(F)cc4)c4sccc4n3)cc2)CC1 | 10.2 µM | 22.6 µM
12 | C=C1C(=O)O[C@H]2[C@H]1CC/C(COC(=O)N[C@H](Cc1c[nH]c3ccccc13)C(=O)OC)=C\CC[C@@]1(C)O[C@@H]21 | 1.02 µM | 3.92 µM
13 | COc1cc(NCCC2CCCCN2)c2ncccc2c1OC (configuration not stated) | 2.07 µM | 4.18 µM
14 | C[C@@H](Oc1cc(-c2cnn(C3CCNCC3)c2)cnc1N)c1c(Cl)cc(F)cc1Cl | 1.31 µM | 2.92 µM
15 | Nc1no[n+]([O-])c1-c1nnc2c(n1)-c1ccccc1C2=O | 2.19 µM | 5.64 µM
16 | CC1(C)CC[C@]2(CO)CC[C@]3(C)C(=CC[C@@H]4[C@@]5(C)CCNCC(C)(C)[C@@H]5CC[C@]43C)[C@@H]2C1 | 1.8 µM | 3.79 µM
17 | CCCCC[C@H]1C/C=C2/C(=O)C(Cl)=C[C@@H]2C/C=C\CCCC(=O)O1 | 0.357 µM | 1.04 µM
18 | COc1ccc(NC(=O)c2cccc(C3CCc4c(cc(OC)c(OC)c4OC)O3)c2)cc1 (configuration not stated) | 2.6 µM | > 100 µM
19 | Nc1nc(N)c(-c2ccc(Cl)c(Cl)c2)c(CP(Cl)(Cl)(Cl)Br)n1 | 7.45 µM | 36.1 µM
20 | CN(C)C/C=C/C(=O)Nc1cc2c(Nc3cccc(Cl)c3F)ncnc2cc1OCCOC(F)F | < 0.01 µM | –

Row | Compound | GI50 | TGI
21 | Cc1ccc(NC2=CC(=O)C(=O)c3ccccc32)cc1 | 1.97 µM | 5.74 µM
22 | CC[C@H](CO)Nc1ccc2ncc(C#Cc3cncc(C(=O)Nc4ccc(CN5CCN(C)CC5)c(C(F)(F)F)c4)c3)n2n1 | 0.126 µM | 0.376 µM
23 | CCN(CC)CCCC(C)Nc1ccnc(/C=C/c2ccc(Cl)cc2)c1 (configuration not stated) | 1.45 µM | 2.86 µM
24 | CCOC(=O)c1cc2c(n1Cc1cc(OC)cc(OC)c1)-c1oncc1CC2 | 0.0364 µM | 0.268 µM
25 | NC(Cc1c[nH]c2cccc(F)c12)C(=O)O (configuration not stated) | 50.8 µM and 494 µM | 2050 µM
26 | COc1cccc(-c2nn(-c3ccccc3)cc2-c2ccnc(NCCCNS(=O)(=O)c3ccc(C(F)(F)F)cc3)c2)c1 | 3.11 µM | > 100 µM
27 | COc1ccc2nc3ccccc3c(NCc3ccccc3)c2c1 | 1.77 µM | 4.05 µM
28 | O=C(Nc1ccc(Cl)cc1)N1CCN(c2ccc3nncn3n2)CC1 | 26.9 µM | 99.3 µM
29 | NCCCNc1nc2ccccc2c2c(=O)c3cc(F)cc(Cl)c3sc12 | 1.69 µM | 3.71 µM
30 | CN(c1ccc(F)cc1)S(=O)(=O)c1ccc(-c2cnc(C3CC3)o2)cc1 | 0.0544 µM | 8.98 µM
31 | O=c1[nH]c2ccccc2n1C1CCN(CCOc2ccccc2)CC1 | 6.25 µM | 57.8 µM
32 | O=C(CC1Sc2ccccc2NC1=O)NNc1ccc(F)cc1 (configuration not stated) | > 100 µM | > 100 µM
33 | CCOC(=O)c1cc(C(=O)c2cc(OC)c(OC)c(OC)c2)n2ccc(-c3cc[n+](CC(=O)c4cc(OC)c(OC)c(OC)c4)cc3)cc12 | 1.94 µM | 3.81 µM
34 | O=C(CCl)Nc1ccc(Cc2ccc(NC(=O)CCl)cc2)cc1 | 2.03 µM | 5.57 µM
35 | COc1cc(/C=C/c2ccnc3ccccc23)cc(OC)c1OC | 1.19 µM | 5.67 µM
36 | CC1(C)CN(CCNc2nccc(-c3c(-c4cccc(O)c4)nc4sccn34)n2)S(=O)(=O)N1 | 7.03 µM | > 33.2 µM
37 | Cn1cc(-c2nc(-c3cn(C)c4ncccc34)cs2)c2ccccc21 | 0.169 µM | 0.719 µM
38 | OCC1OC(n2cnc3c(NCc4ccco4)ncnc32)C(O)C1O (configuration not stated) | 1.36 µM | 3.16 µM
39 | CCC(C(=O)[C@@H](C)[C@@H](O)[C@H](C)[C@@H]1O[C@@H]([C@@H](CC)C(=O)ONC(=O)c2ccccc2)CC[C@@H]1C)[C@H]1O[C@]2(C=CC(=O)[C@]3(CC[C@@](C)([C@H]4CC[C@](O)(CC)[C@H](C)O4)O3)O2)[C@H](C)C[C@@H]1C (some centres not stated) | 0.0992 µM | 0.979 µM
